Source: patent US12595269B2, “Morpholine-like monoamine releasers” (Solvonis Therapeutics Ireland Holdings Limited, priority 2022, dated 2026)

Assays:
Format in all cases: in vitro ADME
CYP2C19 = target: T1, CYP2C19 (Homo sapiens, UniProt P33261); test: CYP450 inhibition, fluorescent probe, recombinant microsomes: CYP2C19
T1 construct: host or cells: recombinant microsomes
Experimental: (§1) Methods and Procedure: The study was performed in agreement with previously described procedures to assure data integrity and adherence to GLP standards. Briefly, recombinant human CYP450 isoenzymes were used to metabolize pro-fluorescent probe substrates to fluorescent products. IC50 values determined from the effect of test compounds on the metabolism of these probe substrates were then used to determine inhibitory potency against CYP450 isoforms.
(§2) The test system was based on a three-step procedure with a “mix and read” format, where PGP-432,TI reaction and reading were performed at 37° C. […] Fluorescence was measured in kinetic mode (1 read/minutes for 10 minutes), and the fluorescence rate was calculated. […]
(§3) Microsomes were added to the buffer prior to the substrate addition. […] For fluorescence measurement, 10 μL/well of the test compounds were transferred from the compound plate to the assay plate using Biomek FX and the appropriate protocol. […]
(§4) 10 μL/well of the cofactor was then added to the assay plate using the Multidrop before placing the assay plate in the plate reader EnVision to measure fluorescence. […]
(§5) Next, 10 μL/well from the compound plate was added and incubated for 10 minutes at 37° C. on a plate shaker, while a mixture of Vivid Substrate and Vivid NADP+ in Vivid CYP450 Reaction Buffer was prepared. […] Regarding data analysis, the inhibition effect is expressed as a percentage. […]

CYP2C8 = target: T2, CYP2C8 (Homo sapiens, UniProt P10632); test: CYP450 inhibition, CYP2C8 Baculosomes, Vivid DBOMF substrate
T2 construct: purchased Life Technologies PV6138; host or cells: Baculosomes
T2 sequence (P10632 1-490): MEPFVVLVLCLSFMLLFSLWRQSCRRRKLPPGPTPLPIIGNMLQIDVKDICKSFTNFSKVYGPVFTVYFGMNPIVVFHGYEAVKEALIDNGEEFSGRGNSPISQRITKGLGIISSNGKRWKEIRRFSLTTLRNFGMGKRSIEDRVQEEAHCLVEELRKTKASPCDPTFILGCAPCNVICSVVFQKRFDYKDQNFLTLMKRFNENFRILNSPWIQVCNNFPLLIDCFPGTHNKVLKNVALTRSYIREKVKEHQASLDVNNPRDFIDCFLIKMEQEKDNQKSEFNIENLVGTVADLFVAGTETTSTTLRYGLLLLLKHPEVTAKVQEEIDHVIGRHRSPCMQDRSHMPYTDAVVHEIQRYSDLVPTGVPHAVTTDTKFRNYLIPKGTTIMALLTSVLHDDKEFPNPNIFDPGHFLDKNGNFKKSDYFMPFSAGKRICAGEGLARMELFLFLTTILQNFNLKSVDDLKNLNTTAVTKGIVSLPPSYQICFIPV
Experimental: as §1, §2
Next, 10 μL/well from the compound plate was added and incubated for 10 minutes at 37° C. on a plate shaker, while a mixture of Vivid Substrate and Vivid NADP+ in Vivid CYP450 Reaction Buffer was prepared. The reaction was initiated by adding 10 μL/well of the Vivid Substrate and NADP+ mixture, before transferring the plate into the fluorescent plate reader (immediately, within 2 minutes), and fluorescence was monitored every minute for 10 minutes according to the specific protocol. Regarding data analysis, the inhibition effect is expressed as a percentage. […]

CYP2C9 = target: T3, CYP2C9 (Homo sapiens, UniProt P11712); test: CYP450 inhibition, fluorescent probe, recombinant microsomes: CYP2C9
T3 construct: host or cells: recombinant microsomes
T3 sequence (P11712 whole entry): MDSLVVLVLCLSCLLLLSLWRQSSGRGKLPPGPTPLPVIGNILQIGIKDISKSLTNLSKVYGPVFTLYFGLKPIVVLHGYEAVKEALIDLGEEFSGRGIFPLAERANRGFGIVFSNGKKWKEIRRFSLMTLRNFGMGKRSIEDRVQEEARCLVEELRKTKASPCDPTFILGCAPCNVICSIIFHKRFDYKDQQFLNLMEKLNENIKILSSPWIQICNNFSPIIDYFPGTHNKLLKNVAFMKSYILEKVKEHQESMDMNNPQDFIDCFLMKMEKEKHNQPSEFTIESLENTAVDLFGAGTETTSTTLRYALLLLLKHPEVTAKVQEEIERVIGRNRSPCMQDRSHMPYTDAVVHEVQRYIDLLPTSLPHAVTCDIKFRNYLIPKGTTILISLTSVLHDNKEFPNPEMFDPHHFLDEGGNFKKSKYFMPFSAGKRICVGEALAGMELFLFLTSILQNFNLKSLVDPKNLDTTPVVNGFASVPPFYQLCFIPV
Experimental: as §1, §2, §3, §4, §5

T1 sequence (P33261 whole entry): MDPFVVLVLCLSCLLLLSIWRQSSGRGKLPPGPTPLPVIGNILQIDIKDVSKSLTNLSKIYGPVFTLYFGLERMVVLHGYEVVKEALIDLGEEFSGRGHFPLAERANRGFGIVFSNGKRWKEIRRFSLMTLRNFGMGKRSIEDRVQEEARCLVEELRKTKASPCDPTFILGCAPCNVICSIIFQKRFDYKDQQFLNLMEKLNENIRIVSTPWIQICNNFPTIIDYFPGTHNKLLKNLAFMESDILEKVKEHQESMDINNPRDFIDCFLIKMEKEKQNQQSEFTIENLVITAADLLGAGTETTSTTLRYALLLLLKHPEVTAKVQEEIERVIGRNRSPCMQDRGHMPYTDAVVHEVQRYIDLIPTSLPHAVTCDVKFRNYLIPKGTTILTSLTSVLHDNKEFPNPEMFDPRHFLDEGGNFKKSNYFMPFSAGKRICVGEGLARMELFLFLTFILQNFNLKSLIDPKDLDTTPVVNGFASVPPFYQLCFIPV

Row | SMILES | IC50 at 10 min (CYP2C19; human, recombinant microsomes expressing CYP2C19) [µM] | IC50 at 10 min (CYP2C8; human, recombinant CYP2C8 Baculosomes, pH 8, probe Vivid DBOMF) [µM] | IC50 at 10 min (CYP2C9; human, recombinant microsomes expressing CYP2C9) [µM] | IC50 (CYP2C19; recombinant human CYP2C19) [µM] | IC50 (CYP2C8; recombinant human CYP2C8) [µM] | IC50 (CYP2C9; recombinant human CYP2C9) [µM]
1 | CNC(C)Cc1ccc2c(c1)OCO2 (stereo not drawn) [MDMA, reference compound] | 50 | 50 | 50 | – | – | –
2 | Clc1ccc(C23CNC(CO2)C3)cc1Cl (stereo not drawn) [522A, 1-(3,4-dichlorophenyl)-2-oxa-5-azabicyclo[2.2.1]heptane] | – | – | – | > 50 | > 50 | > 50
